Experimental data reported in patent US5968907A (priority 1997, dated 1999).

molecular target: cholera toxin (Vibrio cholerae serotype O1, UniProt P01556); experiment: biochemical; conditions: read-out: inhibition of binding of cholera toxin to ganglioside GD1b
Sequence (P01556 22-124 limits assumed): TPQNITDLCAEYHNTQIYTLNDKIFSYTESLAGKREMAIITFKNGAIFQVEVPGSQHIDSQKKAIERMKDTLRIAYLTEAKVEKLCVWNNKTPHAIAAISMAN

Row | SMILES | inhibition at 1000 µg/mL
1 | CC(O)CC(S[C@@H]1O[C@H](CO)[C@H](O)[C@H](O)[C@H]1O)c1ccccc1 (stereo partly drawn) [Example A3, 3-Hydroxy-1-phenylbut-1-yl 1-Thio-β-D-galactopyranoside] | < 20%
2 | CC1(C)CC(O)CC1S[C@@H]1O[C@H](CO)[C@H](O)[C@H](O)[C@H]1O (stereo partly drawn) [Example A6, 2,2-Dimethyl-4-hydroxycyclopent-1-yl 1-Thio-β-D-galactopyranoside] | < 20%
3 | CC(O)CC(C)S[C@@H]1O[C@H](CO)[C@H](O)[C@H](O)[C@H]1O (stereo partly drawn) [Example A8, 4Hydroxypent-2-yl 1-Thio-β-D-galactopyranoside] | < 20%
4 | CC(N)CC(S[C@@H]1O[C@H](CO)[C@H](O)[C@H](O)[C@H]1O)c1ccccc1 (stereo partly drawn) [Example B3, 3-Amino-1-phenylbut-1-yl 1-Thio-β-D-galactopyranoside] | < 20%
5 | CC1(C)CC(N)CC1S[C@@H]1O[C@H](CO)[C@H](O)[C@H](O)[C@H]1O (stereo partly drawn) [Example B6, 2,2-Dimethyl-4aminocyclopent-1-yl 1-Thio-β-D-galactopyranoside] | ≥ 20%
6 | CNC1CC(S[C@@H]2O[C@H](CO)[C@H](O)[C@H](O)[C@H]2O)C(C)(C)C1 (stereo partly drawn) [Example B6A, 2,2-Dimethyl-4-(methylamino)-cyclopent-1-yl 1-Thio-β-D-galactopyranoside] | ≥ 20%
7 | CC1CCC(NC2CC(S[C@@H]3O[C@H](CO)[C@H](O)[C@H](O)[C@H]3O)C(C)(C)C2)CC1 (stereo partly drawn) [Example B6L, 2,2-Dimethyl-4-(4-methylcyclohex-1-ylamino)-cyclopent-1-yl 1-Thio-β-D-galactopyranoside] | ≥ 20%
8 | CC1CCC(NC2CC(S[C@@H]3O[C@H](CO)[C@H](O)[C@H](O)[C@H]3O)C(C)(C)C2)C1 (stereo partly drawn) [Example B6Q, 2,2-Dimethyl-4-(3-methylcyclopent-1-ylamino)-cyclopent-1-yl 1-Thio-β-D-galactopyranoside] | ≥ 20%
9 | CC1CCCC(NC2CC(S[C@@H]3O[C@H](CO)[C@H](O)[C@H](O)[C@H]3O)C(C)(C)C2)C1 (stereo partly drawn) [Example B6T, 2,2-Dimethyl-4-(3-methylcyclohex-1-ylamino)-cyclopent-1-yl 1-Thio-β-D-galactopyranoside] | ≥ 20%
10 | CC(N)CC(C)S[C@@H]1O[C@H](CO)[C@H](O)[C@H](O)[C@H]1O (stereo partly drawn) [Example B8, 4-Aminopent-2-yl 1-Thio-β-D-galactopyranoside] | ≥ 20%
11 | CC(=O)NC1CCCC1S[C@@H]1O[C@H](CO)[C@H](O)[C@H](O)[C@H]1O (stereo partly drawn) [Example C1, 2-Acetamidocyclopent-1-yl 1-Thio-β-D-galactopyranoside] | < 20%
12 | CC(=O)NC(C)CC(S[C@@H]1O[C@H](CO)[C@H](O)[C@H](O)[C@H]1O)c1ccccc1 (stereo partly drawn) [Example C3, 3-Acetamido-1-phenylbut-1-yl 1-Thio-β-D-galactopyranoside] | < 20%
13 | CC(=O)NC(C)CC(C)S[C@@H]1O[C@H](CO)[C@H](O)[C@H](O)[C@H]1O (stereo partly drawn) [Example C8, 4-Acetamidopent-2-yl 1-Thio-β-D-galactopyranoside] | < 20%
14 | O=C(O)c1ccccc1C(=O)NC1CCCC1S[C@@H]1O[C@H](CO)[C@H](O)[C@H](O)[C@H]1O (stereo partly drawn) [Example D1, 2-(2-Carboxybenzamido)cyclopent-1-yl 1-Thio-β-D-galactopyranoside] | ≥ 20%
15 | CC(CC(S[C@@H]1O[C@H](CO)[C@H](O)[C@H](O)[C@H]1O)c1ccccc1)NC(=O)c1ccccc1C(=O)O (stereo partly drawn) [Example D3, 3-(2-Carboxybenzamido)-1-phenylbut-1-yl 1-Thio-β-D-galactopyranoside] | < 20%
16 | CC(CC(C)S[C@@H]1O[C@H](CO)[C@H](O)[C@H](O)[C@H]1O)NC(=O)c1ccccc1C(=O)O (stereo partly shown) [Example D8] | ≥ 20%
17 | O=C(O)CNC1CCCCC(S[C@@H]2O[C@H](CO)[C@H](O)[C@H](O)[C@H]2O)C1 (stereo partly drawn) [Example E5, Nα-[3-(1-Thio-β-D-galactopyranosyl)cyclohept-1-yl]glycine] | < 20%
18 | CC(CC(C)S[C@@H]1O[C@H](CO)[C@H](O)[C@H](O)[C@H]1O)NCC(=O)O (stereo partly drawn) [Example E8, Nα-[4-(1-Thio-β-D-galactopyranosyl)pent-2-yl]glycine] | < 20%

Row | SMILES | inhibition at 1000 µg/mL
19 | CC1(C)CCC(NCC(=O)O)CC1S[C@@H]1O[C@H](CO)[C@H](O)[C@H](O)[C@H]1O (stereo partly drawn) [Example E9, Nα-[4,4-Dimethyl-3-(1-thio-β-D-galactopyranosyl)-cyclohex-1-yl]glycine] | < 20%
20 | CC1(C)CC(NCCC(=O)O)CC1S[C@@H]1O[C@H](CO)[C@H](O)[C@H](O)[C@H]1O (stereo partly drawn) [Example F6, Nβ-[4,4-Dimethyl-3-(1-thio-β-D-galactopyranosyl)-cyclopent-1-yl]-βalanine] | < 20%
21 | CC1(C)CCC(NCCC(=O)O)CC1S[C@@H]1O[C@H](CO)[C@H](O)[C@H](O)[C@H]1O (stereo partly drawn) [Example F9, Nβ-[4,4Dimethyl-3-(1-thio-β-D-galactopyranosyl)-cyclohex-1-yl]-β-alanime] | < 20%
22 | CC(C)C[C@H](NC(C)CC(S[C@@H]1O[C@H](CO)[C@H](O)[C@H](O)[C@H]1O)c1ccccc1)C(=O)O (stereo partly drawn) [Example G3, Nα-[4-Phenyl-4-(1-thio-β-galactopyranosyl)but-2-yl]-L-leucine] | < 20%
23 | CC(C)C[C@H](NC1CCC(S[C@@H]2O[C@H](CO)[C@H](O)[C@H](O)[C@H]2O)C1)C(=O)O (stereo partly drawn) [Example G7, Nα-[3-(1-Thio-β-D-galactopyranosyl)cyclopent-1-yl]-L-leucine] | < 20%
24 | CC(C)C[C@H](NC(C)CC(C)S[C@@H]1O[C@H](CO)[C@H](O)[C@H](O)[C@H]1O)C(=O)O (stereo partly drawn) [Example G8, Nα-[4-(1-Thio-β-D-galactopyranosyl)pent-2-yl]-L-leucine] | < 20%
25 | CC(C)C[C@H](NC1CCC(C)(C)C(S[C@@H]2O[C@H](CO)[C@H](O)[C@H](O)[C@H]2O)C1)C(=O)O (stereo partly drawn) [Example G9, Nα-[4,4-Dimethyl-3-(1-thio-β-D-galactopyranosyl)-cyclohex-1-yl]-L-leucine] | < 20%
26 | CC(C)C[C@H](NC1CCCC(S[C@@H]2O[C@H](CO)[C@H](O)[C@H](O)[C@H]2O)C1)C(=O)O (stereo partly drawn) [Example G10, Nα-[3-(1-Thio-β-D-galactopyranosyl)cyclohex-1-yl]-L-leucine] | < 20%
27 | CC(CC(S[C@@H]1O[C@H](CO)[C@H](O)[C@H](O)[C@H]1O)c1ccccc1)N[C@@H](Cc1c[nH]c2ccccc12)C(=O)O (stereo partly drawn) [Example I3, Nα-[4-Phenyl-4-(1-thio-β-D-galactopyranosyl)but-2-yl]-L-tryptophan] | ≥ 20%
28 | CC(CC(C)S[C@@H]1O[C@H](CO)[C@H](O)[C@H](O)[C@H]1O)N[C@@H](Cc1c[nH]c2ccccc12)C(=O)O (stereo partly drawn) [Example I8, Nα-[4-(1-Thio-β-D-galactopyranosyl)pent-2-yl]-L-tryptophan] | < 20%
29 | CC1(C)CCC(N[C@@H](Cc2c[nH]c3ccccc23)C(=O)O)CC1S[C@@H]1O[C@H](CO)[C@H](O)[C@H](O)[C@H]1O (stereo partly drawn) [Example I9, Nα-[4,4-Dimethyl-3-(1-thio-β-D-galactopyranosyl)-cyclohex-1-yl]-L-tryptophan] | < 20%
30 | O=C(O)[C@H](Cc1c[nH]c2ccccc12)NC1CCCC(S[C@@H]2O[C@H](CO)[C@H](O)[C@H](O)[C@H]2O)C1 (stereo partly drawn) [Example I10, Nα-[3-(1-Thio-β-D-galactopyranosyl)cyclohex-1-yl]-L-tryptophan] | < 20%
31 | N=C(N)NCCC[C@H](NC1CCCC1S[C@@H]1O[C@H](CO)[C@H](O)[C@H](O)[C@H]1O)C(=O)O (stereo partly drawn) [Example J1, Nα-[2-(1-Thio-β-D-galactopyranosyl)cyclopent-1-yl]-L-arginine] | ≥ 20%
32 | CC(CC(S[C@@H]1O[C@H](CO)[C@H](O)[C@H](O)[C@H]1O)c1ccccc1)N[C@@H](CCCNC(=N)N)C(=O)O (stereo partly drawn) [Example J3, Nα-[4-Phenyl-4-(1-Thio-β-D-galactopyranosyl)but-2-yl]-L-arginine] | ≥ 20%
33 | N=C(N)NCCC[C@H](NC1CCCCC(S[C@@H]2O[C@H](CO)[C@H](O)[C@H](O)[C@H]2O)C1)C(=O)O (stereo partly drawn) [Example J5, Nα-[3-(1-Thio-β-D-galactopyranosyl)cyclohept-1-yl]-L-arginine] | < 20%
34 | CC1(C)CC(N[C@@H](CCCNC(=N)N)C(=O)O)CC1S[C@@H]1O[C@H](CO)[C@H](O)[C@H](O)[C@H]1O (stereo partly drawn) [Example J6, Nα-[4,4-Dimethyl-3-(1-thio-β-D-galactopyranosyl)-cyclopent-1-yl]-L-arginine] | < 20%
35 | CC(CC(C)S[C@@H]1O[C@H](CO)[C@H](O)[C@H](O)[C@H]1O)N[C@@H](CCCNC(=N)N)C(=O)O (stereo partly drawn) [Example J8, Nα-[4-(1-Thio-β-D-galactopyranosyl)pent-2-yl]-L-arginine] | < 20%
36 | N=C(N)NCCC[C@H](NC1CCCC(S[C@@H]2O[C@H](CO)[C@H](O)[C@H](O)[C@H]2O)C1)C(=O)O (stereo partly drawn) [Example J10, Nα-[3-(1-Thio-β-D-galactopyranosyl)cyclohex-1-yl]-L-arginine] | < 20%

molecular target: heat-labile enterotoxin from E. coli (Escherichia coli, UniProt P0CK94); experiment: not given; assay type: binding; conditions: at the concentration employed in the assay
Sequence (P0CK94 whole entry, looked up): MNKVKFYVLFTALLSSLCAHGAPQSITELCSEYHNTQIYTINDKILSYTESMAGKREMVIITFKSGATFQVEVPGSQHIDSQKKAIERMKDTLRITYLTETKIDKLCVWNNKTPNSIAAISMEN

Row | SMILES | inhibition of binding of heat-labile enterotoxin to ganglioside GD1b
37 | OC[C@H]1O[C@@H](SC2CCCCC2O)[C@H](O)[C@@H](O)[C@H]1O (stereo partly drawn) [Example A2, 2-Hydroxycyclohex-1-yl 1-Thio-β-D-galactopyranoside] | < 20%
38 | CC1(C)CCC(S[C@@H]2O[C@H](CO)[C@H](O)[C@H](O)[C@H]2O)CC1O (stereo partly drawn) [Example A11, 4,4Dimethyl-3-hydroxycyclohex-1-yl 1-Thio-β-D-galactopyranoside] | at least 20%
39 | CC1(C)CCC(S[C@@H]2O[C@H](CO)[C@H](O)[C@H](O)[C@H]2O)CC1N (stereo partly drawn) [Example B11, 3-Amino-4,4-dimethylcyclohex-1-yl 1-Thio-β-D-galactopyranoside] | at least 20%
40 | CC(=O)NC1CCCCC1S[C@@H]1O[C@H](CO)[C@H](O)[C@H](O)[C@H]1O (stereo partly drawn) [Example C2, 2-Acetamidocyclohex-1-yl 1-Thio-β-D-galactopyranoside] | at least 20%
